Results: patent US12195482B1 (Arcus Biosciences, Inc., priority 2022, dated 2025)

Key:
[1] = biological target: T1, p-AXL (Homo sapiens, UniProt P30530); test: Axl phosphorylation inhibition ELISA in HEK293T cells transfected with NanoLuc-tagged AXL; assay type: cell-based; conditions: 1 h compound incubation, media (OptiMEM)
T1 construct: expressed in transfected cells; host or cells: HEK293T
T1 sequence (P30530 26-894): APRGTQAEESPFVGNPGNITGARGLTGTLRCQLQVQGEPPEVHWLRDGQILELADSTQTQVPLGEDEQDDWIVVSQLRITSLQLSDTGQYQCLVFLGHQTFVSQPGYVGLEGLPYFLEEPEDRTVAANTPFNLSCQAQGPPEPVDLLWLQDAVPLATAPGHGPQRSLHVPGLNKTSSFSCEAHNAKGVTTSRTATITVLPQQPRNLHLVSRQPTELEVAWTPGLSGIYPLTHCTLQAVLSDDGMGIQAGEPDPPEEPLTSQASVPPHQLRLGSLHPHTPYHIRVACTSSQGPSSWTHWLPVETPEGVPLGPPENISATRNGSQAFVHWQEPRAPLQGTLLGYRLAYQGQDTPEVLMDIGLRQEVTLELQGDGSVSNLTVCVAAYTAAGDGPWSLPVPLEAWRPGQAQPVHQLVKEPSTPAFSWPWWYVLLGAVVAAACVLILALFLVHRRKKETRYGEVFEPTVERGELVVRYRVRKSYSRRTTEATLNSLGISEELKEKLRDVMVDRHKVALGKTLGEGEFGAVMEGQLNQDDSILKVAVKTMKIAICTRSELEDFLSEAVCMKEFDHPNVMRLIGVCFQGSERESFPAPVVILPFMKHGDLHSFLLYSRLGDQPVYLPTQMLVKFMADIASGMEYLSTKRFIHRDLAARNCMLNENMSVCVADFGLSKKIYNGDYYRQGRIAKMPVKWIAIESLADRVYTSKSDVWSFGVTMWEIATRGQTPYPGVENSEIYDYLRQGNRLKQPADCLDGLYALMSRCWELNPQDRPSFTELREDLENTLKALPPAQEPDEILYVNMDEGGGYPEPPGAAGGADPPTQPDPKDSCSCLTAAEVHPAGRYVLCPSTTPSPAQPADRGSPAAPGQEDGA
In short: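 HEK293T cells transiently transfected one day earlier with NanoLuc-tagged AXL were exposed to 22-point 2-fold compound dilutions for 1 h at 37° C (70,000 cells/well), then lysed. Lysates captured on anti-phospho-tyrosine coated plates for 2 h; bound p-AXL read by NanoLuc luminescence; IC50 from 4-parameter logistic fit.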

[2] = biological target: T2, Axl (Homo sapiens, UniProt P30530); test: Biochemical potency, HTRF KinEASE-TK kinase assay; parameters: purchased Invitrogen; conditions: 5 nM AXL, 700 μM ATP
T2 sequence (P30530 26-894): T1 sequence (P30530 26-894)
In short: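 Enzyme (AXL 5 nM; TYRO3 or MER 1 nM final) was preincubated with compound for 1 h at RT, then reacted for 2 h at RT with 800 nM biotinylated TK substrate and 700 µM ATP in HEPES pH 7.4, MgCl2, DTT, BSA, 1% DMSO. Percent activity came from the HTRF 665/620 ratio.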

SMILES | IC50 [1] [nM] | IC50 [2] [nM]
Cc1cnc(-c2ccc(-c3c[nH]c4ncc(-c5ccc6c(c5)CC[C@@H](N5CCCC5)CC6)cc34)cc2)c(C)n1 [Example 59, 3,5-Dimethyl-2-(4-{5-[(7S)-7-(pyrrolidin-1-yl)-6,7,8,9-tetrahydro-5H-benzo[7]annulen-2-yl]-1H-pyrrolo[2,3-b]pyridin-3-yl}phenyl)pyrazine] | 100 to 1000 | < 100
Cc1cccnc1-c1ccc(-c2n[nH]c3ncc(-c4ccc5c(c4)CC[C@@H](N4C6COCC4C6)CC5)cc23)cc1 [Example 2, 6-[(7S)-2-{3-[4-(3-Methylpyridin-2-yl)phenyl]-2H-pyrazolo[3,4-b]pyridin-5-yl}-6,7,8,9-tetrahydro-5H-benzo[7]annulen-7-yl]-3-oxa-6-azabicyclo[3.1.1]heptane] | < 100 | < 100
Cc1cnc(-c2ccc(-c3c[nH]c4ncc(-c5ccc6c(c5)CC[C@@H](N5C7COCC5C7)CC6)cc34)cc2)c(C)n1 [Example 50, 6-[(7S)-2-{3-[4-(3,5-Dimethylpyrazin-2-yl)phenyl]-1H-pyrrolo[2,3-b]pyridin-5-yl}-6,7,8,9-tetrahydro-5H-benzo[7]annulen-7-yl]-3-oxa-6-azabicyclo[3.1.1]heptane] | < 100 | < 100
COc1ccnc(-c2ccc(-c3c[nH]c4ncc(-c5ccc6c(c5)CC[C@@H](N5C7COCC5C7)CC6)cc34)cc2)c1C [Example 86, 6-[(7S)-3-[3-[4-(4-Methoxy-3-methylpyridin-2-yl)phenyl]-1H-pyrrolo[2,3-b]pyridin-5-yl]-6,7,8,9-tetrahydro-5H-benzo[7]annulen-7-yl]-3-oxa-6-azabicyclo[3.1.1]heptane] | 100 to 1000 | < 100
C[C@@H]1CCCN1[C@@]1(C)CCc2ccc(-c3cnc4[nH]nc(-c5ccc(-c6ncco6)cc5)c4c3)cc2CC1 [Example 90, 2-(4-{5-[(7S)-7-Methyl-7-[(2R)-2-methylpyrrolidin-1-yl]-6,7,8,9-tetrahydro-5H-benzo[7]annulen-2-yl]-2H-pyrazolo[3,4-b]pyridin-3-yl}phenyl)-1,3-oxazole] | < 100 | < 100
Cc1cc(C)c(-c2ccc(-c3n[nH]c4ncc(-c5ccc6c(c5)CC[C@@](C)(N5CCC[C@H]5C)CC6)cc34)cc2)nn1 [Example 78, 4,6-Dimethyl-3-(4-{5-[(7S)-7-methyl-7-[(2R)-2-methylpyrrolidin-1-yl]-6,7,8,9-tetrahydro-5H-benzo[7]annulen-2-yl]-1H-pyrazolo[3,4-b]pyridin-3-yl}phenyl)pyridazine] | < 100 | < 100
C[C@@H]1CCCN1[C@@]1(C)CCc2ccc(-c3cnc4[nH]nc(-c5ccc(-c6nccs6)cc5)c4c3)cc2CC1 [Example 91, 2-(4-{5-[(7S)-7-Methyl-7-[(2R)-2-methylpyrrolidin-1-yl]-6,7,8,9-tetrahydro-5H-benzo[7]annulen-2-yl]-2H-pyrazolo[3,4-b]pyridin-3-yl}phenyl)-1,3-thiazole] | 100 to 1000 | < 100
Cc1cc(C)c(-c2ccc(-c3c[nH]c4ncc(-c5ccc6c(c5)CC[C@@H](N5C7COCC5C7)CC6)cc34)cc2)nn1 [Example 80, 6-[(7S)-2-{3-[4-(4,6-Dimethylpyridazin-3-yl)phenyl]-1H-pyrrolo[2,3-b]pyridin-5-yl}-6,7,8,9-tetrahydro-5H-benzo[7]annulen-7-yl]-3-oxa-6-azabicyclo[3.1.1]heptane] | < 100 | < 100
Cc1cncnc1-c1ccc(-c2c[nH]c3ncc(-c4ccc5c(c4)CC[C@@H](N4C6COCC4C6)CC5)cc23)cc1 [Example 47, 6-[(7S)-2-{3-[4-(5-Methylpyrimidin-4-yl)phenyl]-1H-pyrrolo[2,3-b]pyridin-5-yl}-6,7,8,9-tetrahydro-5H-benzo[7]annulen-7-yl]-3-oxa-6-azabicyclo[3.1.1]heptane] | < 100 | < 100
COc1ccnc(-c2ccc(-c3n[nH]c4ncc(-c5ccc6c(c5)CC[C@@H](N5C7COCC5C7)CC6)cc34)cc2)c1C [Example 87, 6-[(7S)-3-[3-[4-(4-Methoxy-3-methylpyridin-2-yl)phenyl]-1H-pyrazolo[3,4-b]pyridin-5-yl]-6,7,8,9-tetrahydro-5H-benzo[7]annulen-7-yl]-3-oxa-6-azabicyclo[3.1.1]heptane] | 100 to 1000 | < 100

Second part, the compound after the results:

IC50 [1] [nM] | IC50 [2] [nM] | SMILES
100 to 1000 | < 100 | FC(F)(F)c1cccnc1-c1ccc(-c2n[nH]c3ncc(-c4ccc5c(c4)CC[C@@H](N4C6COCC4C6)CC5)cc23)cc1 [Example 88, 6-[(7S)-3-[3-[4-[3-(Trifluoromethyl)pyridin-2-yl]phenyl]-1H-pyrazolo[3,4-b]pyridin-5-yl]-6,7,8,9-tetrahydro-5H-benzo[7]annulen-7-yl]-3-oxa-6-azabicyclo[3.1.1]heptane]
100 to 1000 | < 100 | c1ccc(-c2ccc(-c3c[nH]c4ncc(-c5ccc6c(c5)CC[C@@H](N5C[C@@H]7C[C@H]5CO7)CC6)cc34)cc2)nc1 [Example 33, (1S,4S)-5-[(7S)-3-[3-(4-Pyridin-2-ylphenyl)-1H-pyrrolo[2,3-b]pyridin-5-yl]-6,7,8,9-tetrahydro-5H-benzo[7]annulen-7-yl]-2-oxa-5-azabicyclo[2.2.1]heptane]
< 100 | < 100 | Cc1cc(C)c(-c2ccc(-c3n[nH]c4ncc(-c5ccc6c(c5)CC[C@@H](N5C7COCC5C7)CC6)cc34)cc2)nn1 [Example 77, 6-[(7S)-2-{3-[4-(4,6-Dimethylpyridazin-3-yl)phenyl]-1H-pyrazolo[3,4-b]pyridin-5-yl}-6,7,8,9-tetrahydro-5H-benzo[7]annulen-7-yl]-3-oxa-6-azabicyclo[3.1.1]heptane]
100 to 1000 | < 100 | Clc1cc(-c2c[nH]c3ncc(-c4ccc5c(c4)CC[C@@H](N4C6COCC4C6)CC5)cc23)ccc1-c1ccccn1 [Example 44, 6-[(7S)-2-{3-[3-Chloro-4-(pyridin-2-yl)phenyl]-1H-pyrrolo[2,3-b]pyridin-5-yl}-6,7,8,9-tetrahydro-5H-benzo[7]annulen-7-yl]-3-oxa-6-azabicyclo[3.1.1]heptane]
< 100 | < 100 | CC(C)(C#N)c1cccnc1-c1ccc(-c2n[nH]c3ncc(-c4ccc5c(c4)CC[C@@H](N4C6COCC4C6)CC5)cc23)cc1 [Example 85, 2-Methyl-2-[2-[4-[5-[(7S)-7-(3-oxa-6-azabicyclo[3.1.1]heptan-6-yl)-6,7,8,9-tetrahydro-5H-benzo[7]annulen-3-yl]-1H-pyrazolo[3,4-b]pyridine-3-yl]phenyl]pyridine-3-yl]propanenitrile]
100 to 1000 | < 100 | c1cc(-n2cc(-c3c[nH]c4ncc(-c5ccc6c(c5)CC[C@@H](N5C7COCC5C7)CC6)cc34)cn2)ccn1 [Example 45, 6-[(7S)-2-{3-[1-(Pyridin-4-yl)-1H-pyrazol-4-yl]-1H-pyrrolo[2,3-b]pyridin-5-yl}-6,7,8,9-tetrahydro-5H-benzo[7]annulen-7-yl]-3-oxa-6-azabicyclo[3.1.1]heptane]
100 to 1000 | < 100 | c1cc(-c2ccc(-c3c[nH]c4ncc(-c5ccc6c(c5)CC[C@@H](N5C7COCC5C7)CC6)cc34)cc2)ccn1 [Example 41, 6-[(7S)-2-{3-[4-(Pyridin-4-yl)phenyl]-1H-pyrrolo[2,3-b]pyridin-5-yl}-6,7,8,9-tetrahydro-5H-benzo[7]annulen-7-yl]-3-oxa-6-azabicyclo[3.1.1]heptane]
